Measurements reported in paper PMC10726358 (Journal of Medicinal Chemistry, 2023).
In brackets after ≈: the same amount, converted by molar mass. Several values for one entry are separate records, joined by “and”; a condition that tells them apart may be missing. Equal values may be shown once. Where a name gives a salt, the structure may show the parent alone. Read-outs that look alike come from different tables or passages of the source.

Tests used:
BRD4 BD1 = format: binding, human; conditions: TR-FRET
Protocol: (§1) As a strategic decision, every compound synthesized across all of GSK’s bromodomain research projects was tested in both a BRD4 BD1 and a BRD4 BD2 TR-FRET assay as part of tier 1 data generation. […] LipE is a straightforward, yet powerful metric for medicinal chemistry teams to normalize potency relative to lipophilicity, a critical factor both for parameters of the human dose equation and also for promiscuity.[43],[44] To aid interpretation, diagonal lines representing different LipE values are shown, with the most desirable space found toward the top left-hand area of the plot representing molecules with the comparatively highest potency per unit of lipophilicity.
(§2) All TR-FRET and hWB cytokine assays have been described previously.[54]

CAD aqueous solubility = test: CAD aqueous solubility
Protocol: (§3) To understand cellular target engagement, 21 was tested in an LPS-stimulated hWB assay measuring inhibition of the inflammatory mediator MCP-1 secretion.
ChromatographicLogD at pH 7.4, artificial membrane permeability, CLND solubility, and CAD solubility were measured using published protocols.[55]

[1] = Chromatographic LogD at pH 7.4
MCP-1 = test: LPS-stimulated human whole blood (hWB) MCP-1 release assay; format: cell-based; conditions: for IC50: LPS-stimulated human whole blood
Excerpt: The utility of a chemical probe in target validation is directly related to its quality, with important publications detailing requirements to aid researchers.[36]−[38] […] It was accepted that selectivity would be judged initially through a mutant BRD4 TR-FRET assay and would likely shift depending on the protein construct and assay format. […] Previous studies have shown that BET BD1 inhibition is sufficient to inhibit in vitro production of MCP-1 in LPS-stimulated hWB and, as such, served as a relevant measure of cellular target engagement and, concomitantly, proof of cellular permeability.[12],[39] Selectivity over other human bromodomains outside of the BET family, known collectively as non-BET bromodomains, was also required,[40] with a ≥ 100-fold selectivity window targeted. To ensure the molecules remained within developable chemical space, a target property forecast index (PFI) as defined by chromLogDpH7.4 + number of aromatic rings ≤6 was set.[41]
as §3, §2

BRD4 BD2 = BRD4 BD2 TR-FRET assay; format: binding, human
Protocol: as §1, §2

[2] = CLND kinetic aqueous solubility
[3] = read-out: hWB MCP-1 pIC50 (converted)

Row | SMILES | BRD4 BD1 FRET pIC50 (BRD4 BD1) | fold selectivity (BRD4 BD1 over BRD4 BD2) (BRD4 BD1) | solubility (CAD aqueous solubility) | chromatographic logD ([1]; pH 7.4) | IC50 (MCP-1; [3]) | BRD4 BD2 FRET pIC50 (BRD4 BD2) | solubility ([2]; aqueous) | IC50 (BRD4 BD1; read-out: BRD4 BD1 potency (IC50)) | PFI (property forecast index) ([1]; chromLogDpH7.4 + number of aromatic rings) | chromLogDpH7.4 ([1]; pH 7.4) | solubility [2] | IC50 (MCP-1; read-out: hWB MCP-1 IC50) | drop of hWB activity compared to BRD4 BD1 potency (MCP-1; hWB MCP-1 vs BRD4 BD1 TR-FRET)
1 | Cc1cc(-c2nc3ccccc3n2C[C@@H]2CCCN(C(=O)C3CCC(N)CC3)C2)cn(C)c1=O (stereo in doubt) [Compound 28, 5-(1-(((S)-1-((1r,4R)-4-Aminocyclohexane-1-carbonyl)piperidin-3-yl)methyl)-1H-benzo [d]imidazole-2-yl)-1,3-dimethylpyridin-2(1H)-one] | 7.9 | 631 fold | ≥ 155 µg/mL | 1.4 | 316 nM | 5.1 | – | – | – | – | – | – | –
2 | CC(=O)N1CCC[C@H](Cn2c(-c3cc(C)c(=O)n(C)c3)nc3ccccc32)C1 [(R)-12, (R)-5-(1-((1-Acetylpiperidin-3-yl)methyl)-1H-benzo[d]imidazole-2-yl)-1,3-dimethylpyridin-2(1H)-one] | 7.5 | 16 fold | – | 2.3 | – | 6.3 | ≥ 169 µg/mL | – | – | – | – | – | –
3 | CC(=O)N1CCC[C@@H](Cn2c(-c3cc(C)c(=O)n(C)c3)nc3ccccc32)C1 [(S)-12, (S)-5-(1-((1-Acetylpiperidin-3-yl)methyl)-1H-benzo[d]imidazole-2-yl)-1,3-dimethylpyridin-2(1H)-one] | 8.0 | 63 fold | – | 2.2 | – | 6.2 | ≥ 247 µg/mL | 10 nM | 5.2 | – | – | – | –
4 | Cc1cc(-c2nc3ccccc3n2CC2CCOCC2)cn(C)c1=O [Compound 13] | 7.2 | 6 fold | – | – | – | 6.4 | ≥ 142 µg/mL | – | – | 2.7 | – | – | –
5 | CC(=O)N1CCC[C@@H](Cn2c(-c3cc(C)c(=O)n(C)c3)nc3cc(Br)ccc32)C1 [Compound 14, (S)-5-(1-((1-Acetylpiperidin-3-yl)methyl)-5-bromo-1H-benzo[d]imidazole-2-yl)-1,3-dimethylpyridin-2(1H)-one] | 8.0 ± 0.06 (2) | 50 fold | – | 3.3 | – | 6.3 ± 0.01 (2) | – | – | – | – | ≥ 250 µg/mL | – | –
6 | Cc1cc(-c2nc3ccccc3n2C[C@@H]2CCCN(C(=O)CCCN)C2)cn(C)c1=O [Compound 21, (S)-5-(1-((1-(4-Aminobutanoyl)piperidin-3-yl)methyl)-1H-benzo[d]imidazole-2-yl)-1,3-dimethylpyridin-2(1H)-one] | 7.8 | 158 fold | 113 µg/mL (≈ 268 µM) | 1.2 | 501 nM | 5.6 | – | – | – | – | – | 500 nM | 40 fold
7 | Cc1cc(-c2nc3ccccc3n2C[C@@H]2CCCN(C(=O)C3CNC3)C2)cn(C)c1=O [Compound 22, (S)-5-(1-((1-(Azetidine-3-carbonyl)piperidin-3-yl)methyl)-1H-benzo[d]imidazole-2-yl)-1,3-dimethylpyridin-2(1H)-one] | 8.0 | 126 fold | ≥ 169 µg/mL | 1.2 | 631 nM | 5.9 | – | – | – | – | – | – | –
8 | Cc1cc(-c2nc3ccccc3n2C[C@@H]2CCCN(C(=O)[C@H]3C[C@H](N)C3)C2)cn(C)c1=O [Compound 23, 5-(1-(((S)-1-((1r,3S)-3-Aminocyclobutane-1-carbonyl)piperidin-3-yl)methyl)-1H-benzo[d]imidazole-2-yl)-1,3-dimethylpyridin-2(1H)-one] | 7.9 | 316 fold | ≥ 230 µg/mL | 1.2 | 200 nM | 5.4 | – | – | – | – | – | – | –
9 | Cc1cc(-c2nc3ccccc3n2C[C@@H]2CCCN(C(=O)[C@H]3CCNC3)C2)cn(C)c1=O [Compound 24, 1,3-Dimethyl-5-(1-(((S)-1-((S)-pyrrolidine-3-carbonyl)piperidin-3-yl)methyl)-1H-benzo[d]imidazole-2-yl)pyridin-2(1H)-one] | 7.6 | 200 fold | ≥ 208 µg/mL | 1.3 | 1000 nM | 5.3 | – | – | – | – | – | – | –
10 | Cc1cc(-c2nc3ccccc3n2C[C@@H]2CCCN(C(=O)[C@H]3CC[C@H](N)C3)C2)cn(C)c1=O [Compound 25, 5-(1-(((S)-1-((1S,3S)-3-Aminocyclopentane-1-carbonyl)piperidin-3-yl)methyl)-1H-benzo[d]imidazole-2-yl)-1,3-dimethylpyridin-2(1H)-one] | 7.7 | 500 fold and 501 fold | ≥ 157 µg/mL | 1.4 | 1000 nM | 5.0 | – | – | – | – | – | – | –
11 | Cc1cc(-c2nc3ccccc3n2C[C@@H]2CCCN(C(=O)c3cnc[nH]3)C2)cn(C)c1=O [Compound 26, (S)-5-(1-((1-(1H-Imidazole-5-carbonyl)piperidin-3-yl)methyl)-1H-benzo[d]imidazole-2-yl)-1,3-dimethylpyridin-2(1H)-one, Formic Acid Salt] | 7.0 | 126 fold | ≥ 160 µg/mL | 1.9 | 2510 nM | 4.9 | – | – | – | – | – | – | –
12 | Cc1cc(-c2nc3ccccc3n2C[C@@H]2CCCN(C(=O)C3CCNCC3)C2)cn(C)c1=O [Compound 27, (S)-1,3-Dimethyl-5-(1-((1-(piperidine-4-carbonyl)piperidin-3-yl)methyl)-1H-benzo[d]imidazole-2-yl)pyridin-2(1H)-one] | 7.5 | 398 fold | ≥ 215 µg/mL | 1.3 | 1000 nM | 4.9 | – | – | – | – | – | – | –
13 | Cc1cc(-c2nc3ccccc3n2C[C@@H]2CCCN(C(=O)C3CCCN(C)C3)C2)cn(C)c1=O (stereo partly drawn) [Compound 29, 1,3-Dimethyl-5-(1-(((3S)-1-(1-methylpiperidine-3-carbonyl)piperidin-3-yl)methyl)-1H-benzo[d]imidazole-2-yl)pyridin-2(1H)-one] | 6.8 | 50 fold | ≥ 204 µg/mL | 1.7 | 1580 nM | 5.1 | – | – | – | – | – | – | –
14 | Cc1cc(-c2nc3ccccc3n2C[C@@H]2CCCN(C(=O)C3CCN(C)CC3)C2)cn(C)c1=O [Compound 30, (S)-1,3-Dimethyl-5-(1-((1-(1-methylpiperidine-4-carbonyl)piperidin-3-yl)methyl)-1H-benzo[d]imidazole-2-yl)pyridin-2(1H)-one] | 7.6 | 631 fold | ≥ 237 µg/mL | 1.5 | 251 nM | 4.8 | – | – | – | – | – | – | –
15 | Cc1cc(-c2nc3ccccc3n2C[C@@H]2CCCN(C(=O)C3CCOCC3)C2)cn(C)c1=O [Compound 32, (S)-1,3-Dimethyl-5-(1-((1-(tetrahydro-2H-pyran-4-carbonyl)piperidin-3-yl)methyl)-1H-benzo[d]imidazole-2-yl)pyridin-2(1H)-one] | 6.7 | 100 fold | ≥ 245 µg/mL | 2.7 | 794 nM | 4.7 | – | – | – | – | – | – | –
16 | CC(=O)N1CCC(C(=O)N2CCC[C@@H](Cn3c(-c4cc(C)c(=O)n(C)c4)nc4ccccc43)C2)CC1 [Compound 33, (S)-5-(1-((1-(1-Acetylpiperidine-4-carbonyl)piperidin-3-yl)methyl)-1H-benzo[d]imidazole-2-yl)-1,3-dimethylpyridin-2(1H)-one] | 6.5 | 63 fold | ≥ 205 µg/mL | 2.2 | 2000 nM | 4.7 | – | – | – | – | – | – | –
17 | Cc1cc(-c2nc3ccccc3n2C[C@@H]2CCCN(C(=O)C3CCN(CC(F)(F)F)CC3)C2)cn(C)c1=O [Compound 36, (S)-1,3-Dimethyl-5-(1-((1-(1-(2,2,2-trifluoroethyl)piperidine-4-carbonyl)piperidin-3-yl)methyl)-1H-benzo[d]imidazole-2-yl)pyridin-2(1H)-one] | 6.3 | 40 fold | ≥ 201 µg/mL | 4.2 | 1260 nM | 4.7 | – | – | – | – | – | – | –
